Legend:
NFAT4 = test: Nuclear translocation of NFAT4 by immunofluorescence in HepG2 cells; assay type: cell-based; set-up: key: Subcellular localization of NFAT4 in the cytoplasm is indicated by a (−); nuclear translocation of NFAT4 is indicated by (^+); conditions: 1 μM ionomycin
Protocol: The effect of NIP45 on the nuclear translocation of NFAT4 also was investigated. HepG2 cells were transfected with either NFAT4 or NFAT4 plus NIP45 and stimulated the following day with 1 μM ionomycin for 0, 2, 4, 8 or 15 minutes. For one sample, the cells were stimulated for 15 minutes with ionomycin and then washed with fresh media and allowed to rest for an additional 15 minutes (indicated as “15 min.^+15 min. rest” in Table 1). This analysis is designed to examine the function of NIP45 as a nuclear retention factor. […] All samples were then fixed and analyzed by immunofluorescence for translocation of NFAT4 as described above. Subcellular localization of NFAT4 in the cytoplasm is indicated by a (−) and nuclear translocation of NFAT4 is indicated by (^+).

IL-4 promoter = test: IL-4 luciferase reporter assay in Jurkat cells; assay type: cell-based, human; conditions: PRMT1 with NFATc2 and c-Maf, PMA/ionomycin stimulation
Protocol: FIGS. 11A-11C depict the effects of MTA on T helper cytokine production. (A) T helper cells were isolated from the lymph nodes of DO11.10 TCR transgenic mice and grown under Th1 or Th2 conditions for 7 days. Th1 and Th2 cells were treated with PMA/ionomycin for 3 hrs or pretreated with 1 mM MTA for 60 min prior to PMA/ionomycin stimulation. RNA was isolated with analyzed by RNase protection analysis for transcript level of indicated cytokines. L32 and GAPDH included in the multitemplate probe set served as an internal control. (B) Cells were grown as in (A) either pretreated with 1 mM MTA or left untreated and intracellular cytokine analysis was performed after stimulation with PMA/ionomycin for 2 hrs and an additional 2 hrs with […] monensin. (C) MTA inhibits IL-4 promoter activity. Jurkat cells were transfected with IL-4 reporter vector (2.5 μg) and expression vectors for c-Maf (2.5 μg), NFATc2 (2.5 μg), and PRMT1 (10 μg) along with a TK-renilla luciferase vector (5 ng) as an internal control. Transfectants were left unstimulated or pretreated with 1 mM MTA before a 6 hr PMA/ionomycin stimulation. Luciferase values were calculated relative to TK renilla luciferase internal controls and are expressed relative to unstimulated reporter activity. Similar results were obtained in at least three independent experiments. […]

NFAT reporter element = test: NFAT consensus site luciferase reporter assay in Jurkat cells; assay type: cell-based, human; conditions: PRMT1 with NFATc2
Protocol: FIGS. 13A-13D depict the regulation of the IFNγ and IL-4 promoters by PRMT1. (A) Jurkat cells were transfected with the 9.2 kb IFNγ luciferase reporter 5 μg) and expression vectors for T-bet (5 μg) and PRMT1 (10 μg). Cells were unstimulated or stimulated with PMA/ionomycin for 6 hrs prior to luciferase assays. (B) Jurkat cells were transfected with the IL-4 luciferase reporter (2.5 μg) and expression vectors for NFATc2 (2.5 μg), c-Maf (2.5 μg), and PRMT1 (10 μg). Cells were treated as in (A). (C) Jurkat cells were transfected with the IL-4 luciferase reporter (2.5 μg) and expression vectors for JunB (2.5 μg), c-Maf (2.5 μg), and PRMT1 (10 μg). Cells were treated as in (A). (D) Jurkat cells were transfected with an luciferase reporter driven by NFAT consensus sites and expression vectors for NFATc2 (2.5 μg) and PRMT1 (10 μg). Cells were treated as in (A). (Luciferase units were normalized to TK-renilla luciferase activity. Results are representative to at least three independent experiments.)
The IL-4 promoter contains several composite NFAT/AP-1 sites. Whether PRMT1 coactivation is mediated through NFAT or AP-1 factors was investigated as both NFAT and JunB are involved in the regulation of IL-4 promoter activity (Li, B., et al. (1999) EMBO J 18:420-432). […]

Compound	Nuclear Translocation of NFAT4 (NFAT4; 0 min.)	Nuclear Translocation of NFAT4 (NFAT4; 8 min.)	Nuclear Translocation of NFAT4 (NFAT4; 15 min.)	Nuclear Translocation of NFAT4 (NFAT4; 15 min. + 15 min. rest in fresh media)	IL-4 promoter activity over NFATc2/c-Maf only (IL-4 promoter)	augmentation of NFATc2 transactivation of an NFAT reporter element (NFAT reporter element)
C[C@H](CCC(=O)O)C[C@H](C)C[C@H](C)C(=O)/C=C(\O)[C@H](C)C[C@H](C)C/C=C/[C@@H](C)[C@@H](O)[C@@H](C)[C@@H](O)C[C@@H]1CC[C@@](C)([C@H]2CC[C@@](C)([C@@H](C)O)O2)O1 [Ionomycin, ionomycin]	−	+	+	−		
PRMT1: type I protein arginine methyltransferase (SEQ ID NO:10), expressed from a transfected expression vector					5 fold	approximately 10 fold
